Test results taken from patent US12121521B2, “Uses of salt-inducible kinase (SIK) inhibitors for treating osteoporosis” (The General Hospital Corporation, priority 2016, dated 2024).

Assays:
Experiment in all cases: ScanEDGE kinase panel (DiscoverX)
Assay type in all cases: binding
Conditions in all cases: read-out: % of control activity at 71 nM
p38-alpha = target: T1, p38-alpha (Homo sapiens, UniProt Q16539)
T1 construct: T7 phage fusion (most kinases) or DNA tag for qPCR (kinases made in HEK-293); purchased DiscoverX; host or cells: E. coli BL21-derived host (T7 phage) or HEK-293
Procedure: (§1) ScanEDGE kinase assays paneling specificity across a panel of 96 representative kinases were performed by DiscoverX (Fremont, CA). For most assays, kinase-tagged T7 phage strains were grown in parallel in 24-well blocks in an E. coli host derived from the BL21 strain. Bacteria were grown to log phase and infected with T7 phage from frozen stock (MOI=0.4) and incubated with shaking at 32° C. until lysis (90-150 minutes). The lysates were centrifuged (6000×g) and filtered (0.2 μm) to remove cell debris. The remaining kinases were produced in HEK-293 cells and subsequently tagged with DNA for qPCR detection. […] The liganded beads were blocked with excess biotin and washing with blocking buffer (SeaBlock (Pierce), 1% BSA, 0.05% Tween 20, 1 mM DTT) to remove unbound ligand and to reduce non-specific phage binding. […] Test compounds were prepared as 40× stocks in 100% DMSO and directly diluted into the assay. All reactions were performed in polypropylene 384 well plates in a final volume of 40 μl. […] The kinase concentration in the eluates was measured by qPCR.

TIE2 = target: T2, TIE2 (Homo sapiens, UniProt Q02763)
T2 construct: T7 phage fusion (most kinases) or DNA tag after HEK-293 expression; purchased DiscoverX (Fremont, CA), ScanEDGE; host or cells: T7 phage in E. coli BL21-derived host, or HEK-293
Procedure: as §1

SRPK3 = target: T3, SRPK3 (Homo sapiens, UniProt Q9UPE1)
T3 construct: T7 phage fusion (most kinases) or DNA tag after HEK-293 expression; purchased DiscoverX (Fremont, CA), ScanEDGE; host or cells: T7 phage in E. coli BL21-derived host, or HEK-293
Procedure: as §1

MARK3 = target: T4, MARK3 (Homo sapiens, UniProt P27448)
T4 construct: T7 phage fusion (most kinases) or DNA tag for qPCR (HEK-293-made kinases); purchased DiscoverX; host or cells: E. coli BL21-derived host (T7 phage) or HEK-293
Procedure: as §1

CSNK1G2 = target: T5, CSNK1G2 (Homo sapiens, UniProt P78368)
T5 construct: T7 phage fusion (most kinases) or DNA tag for qPCR (HEK-293-made kinases); purchased DiscoverX (Fremont, CA); host or cells: E. coli BL21-derived host (T7 phage) or HEK-293
Procedure: as §1

ADCK3 = target: T6, ADCK3 (Homo sapiens, UniProt Q8NI60)
T6 construct: T7 phage fusion (most kinases) or DNA tag for qPCR (HEK-293-made kinases); purchased DiscoverX (Fremont, CA); host or cells: E. coli BL21-derived host (T7 phage) or HEK-293
Procedure: as §1

CDK9 = target: T7, CDK9 (Homo sapiens, UniProt P50750)
T7 construct: T7 phage fusion (most kinases) or DNA tag for qPCR (HEK-293-made kinases); purchased DiscoverX (Fremont, CA); host or cells: E. coli BL21-derived host (T7 phage) or HEK-293
Procedure: as §1

DYRK1B = target: T8, DYRK1B (Homo sapiens, UniProt Q9Y463)
T8 construct: T7 phage fusion (most kinases) or DNA tag for qPCR (HEK-293-made kinases); purchased DiscoverX (Fremont, CA); host or cells: E. coli BL21-derived host (T7 phage) or HEK-293
Procedure: as §1

ERK1 = target: T9, ERK1 (Homo sapiens, UniProt P27361)
T9 construct: T7 phage fusion (most kinases) or DNA tag for qPCR (HEK-293-made kinases); purchased DiscoverX; host or cells: E. coli BL21-derived host (T7 phage) or HEK-293
Procedure: as §1

CDK2 = target: T10, CDK2 (Homo sapiens, UniProt P24941)
T10 construct: T7 phage fusion (most kinases) or DNA tag for qPCR (HEK-293-made kinases); purchased DiscoverX (Fremont, CA); host or cells: E. coli BL21-derived host (T7 phage) or HEK-293
Procedure: as §1

CSNK1D = target: T11, CSNK1D (Homo sapiens, UniProt P48730)
T11 construct: T7 phage fusion (most kinases) or DNA tag for qPCR (HEK-293-made kinases); purchased DiscoverX (Fremont, CA); host or cells: E. coli BL21-derived host (T7 phage) or HEK-293
Procedure: as §1

IGF1R = target: T12, IGF1R (Homo sapiens, UniProt P08069)
T12 construct: T7 phage fusion (most kinases) or DNA tag for qPCR (HEK-293-made kinases); purchased DiscoverX; host or cells: E. coli BL21-derived host (T7 phage) or HEK-293
Procedure: as §1

IKK-alpha = target: T13, IKK-alpha (Homo sapiens, UniProt O15111)
T13 construct: T7 phage fusion (most kinases) or DNA tag for qPCR (HEK-293-made kinases); purchased DiscoverX; host or cells: E. coli BL21-derived host (T7 phage) or HEK-293
Procedure: as §1

KIT = target: T14, KIT (Homo sapiens, UniProt P10721)
T14 construct: T7 phage fusion (most kinases) or DNA tag for qPCR (HEK-293-made kinases); purchased DiscoverX; host or cells: E. coli BL21-derived host (T7 phage) or HEK-293
Procedure: as §1

PDGFRA = target: T15, PDGFRA (Homo sapiens, UniProt P16234)
T15 construct: T7 phage fusion (most kinases) or DNA tag for qPCR (kinases made in HEK-293); purchased DiscoverX; host or cells: E. coli BL21-derived host (T7 phage) or HEK-293
Procedure: as §1

SNARK = target: T16, SNARK (Homo sapiens, UniProt Q9H093)
T16 construct: T7 phage fusion (most kinases) or DNA tag after HEK-293 expression; purchased DiscoverX (Fremont, CA), ScanEDGE; host or cells: T7 phage in E. coli BL21-derived host, or HEK-293
Procedure: as §1

MLK1 = target: T17, MLK1 (Homo sapiens, UniProt P80192)
T17 construct: T7 phage fusion (most kinases) or DNA tag for qPCR (kinases made in HEK-293); purchased DiscoverX; host or cells: E. coli BL21-derived host (T7 phage) or HEK-293
Procedure: as §1

CDK11 = target: T18, CDK11 (Homo sapiens, UniProt Q9BWU1)
T18 construct: T7 phage fusion (most kinases) or DNA tag for qPCR (HEK-293-made kinases); purchased DiscoverX (Fremont, CA); host or cells: E. coli BL21-derived host (T7 phage) or HEK-293
Procedure: as §1

SIK2 = target: T19, SIK2 (Homo sapiens, UniProt Q9H0K1)
T19 construct: T7 phage fusion (most kinases) or DNA tag after HEK-293 expression; purchased DiscoverX (Fremont, CA), ScanEDGE; host or cells: T7 phage in E. coli BL21-derived host, or HEK-293
Procedure: as §1

HIPK2 = target: T20, HIPK2 (Homo sapiens, UniProt Q9H2X6)
T20 construct: T7 phage fusion (most kinases) or DNA tag for qPCR (HEK-293-made kinases); purchased DiscoverX; host or cells: E. coli BL21-derived host (T7 phage) or HEK-293
Procedure: as §1

MAPKAPK2 = target: T21, MAPKAPK2 (Homo sapiens, UniProt P49137)
T21 construct: T7 phage fusion (most kinases) or DNA tag for qPCR (HEK-293-made kinases); purchased DiscoverX; host or cells: E. coli BL21-derived host (T7 phage) or HEK-293
Procedure: as §1

EPHA2 = target: T22, EPHA2 (Homo sapiens, UniProt P29317)
T22 construct: T7 phage fusion (most kinases) or DNA tag for qPCR (HEK-293-made kinases); purchased DiscoverX; host or cells: E. coli BL21-derived host (T7 phage) or HEK-293
Procedure: as §1

TYK2 = target: T23, TYK2 (Homo sapiens, UniProt P29597)
T23 construct: T7 phage fusion (most kinases) or DNA tag after HEK-293 expression; purchased DiscoverX (Fremont, CA), ScanEDGE; host or cells: T7 phage in E. coli BL21-derived host, or HEK-293
Procedure: as §1

CHEK1 = target: T24, CHEK1 (Homo sapiens, UniProt O14757)
T24 construct: T7 phage fusion (most kinases) or DNA tag for qPCR (HEK-293-made kinases); purchased DiscoverX (Fremont, CA); host or cells: E. coli BL21-derived host (T7 phage) or HEK-293
Procedure: as §1

RIPK2 = target: T25, RIPK2 (Homo sapiens, UniProt O43353)
T25 construct: T7 phage fusion (most kinases) or DNA tag after HEK-293 expression; purchased DiscoverX (Fremont, CA), ScanEDGE; host or cells: T7 phage in E. coli BL21-derived host, or HEK-293
Procedure: as §1

RAF1 = target: T26, RAF1 (Homo sapiens, UniProt P04049)
T26 construct: T7 phage fusion (most kinases) or DNA tag after HEK-293 expression; purchased DiscoverX (Fremont, CA), ScanEDGE; host or cells: T7 phage in E. coli BL21-derived host, or HEK-293
Procedure: as §1

CDK3 = target: T27, CDK3 (Homo sapiens, UniProt Q00526)
T27 construct: T7 phage fusion (most kinases) or DNA tag for qPCR (HEK-293-made kinases); purchased DiscoverX (Fremont, CA); host or cells: E. coli BL21-derived host (T7 phage) or HEK-293
Procedure: as §1

BTK = target: T28, BTK (Homo sapiens, UniProt Q06187)
T28 construct: T7 phage fusion (most kinases) or DNA tag for qPCR (HEK-293-made kinases); purchased DiscoverX (Fremont, CA); host or cells: E. coli BL21-derived host (T7 phage) or HEK-293
Procedure: as §1

PIK3CA = target: T29, PIK3CA (Homo sapiens, UniProt P42336)
T29 construct: T7 phage fusion (most kinases) or DNA tag for qPCR (kinases made in HEK-293); purchased DiscoverX; host or cells: E. coli BL21-derived host (T7 phage) or HEK-293
Procedure: as §1

ERBB4 = target: T30, ERBB4 (Homo sapiens, UniProt Q15303)
T30 construct: T7 phage fusion (most kinases) or DNA tag for qPCR (HEK-293-made kinases); purchased DiscoverX; host or cells: E. coli BL21-derived host (T7 phage) or HEK-293
Procedure: as §1

PIK3C2B = target: T31, PIK3C2B (Homo sapiens, UniProt O00750)
T31 construct: T7 phage fusion (most kinases) or DNA tag for qPCR (kinases made in HEK-293); purchased DiscoverX; host or cells: E. coli BL21-derived host (T7 phage) or HEK-293
Procedure: as §1

ZAP70 = target: T32, ZAP70 (Homo sapiens, UniProt P43403)
T32 construct: T7 phage fusion (most kinases) or DNA tag after HEK-293 expression; purchased DiscoverX (Fremont, CA), ScanEDGE; host or cells: T7 phage in E. coli BL21-derived host, or HEK-293
Procedure: as §1

PIK3CG = target: T33, PIK3CG (Homo sapiens, UniProt P48736)
T33 construct: T7 phage fusion (most kinases) or DNA tag for qPCR (kinases made in HEK-293); purchased DiscoverX; host or cells: E. coli BL21-derived host (T7 phage) or HEK-293
Procedure: as §1

T25 sequence (O43353 whole entry, the tested form may be a part): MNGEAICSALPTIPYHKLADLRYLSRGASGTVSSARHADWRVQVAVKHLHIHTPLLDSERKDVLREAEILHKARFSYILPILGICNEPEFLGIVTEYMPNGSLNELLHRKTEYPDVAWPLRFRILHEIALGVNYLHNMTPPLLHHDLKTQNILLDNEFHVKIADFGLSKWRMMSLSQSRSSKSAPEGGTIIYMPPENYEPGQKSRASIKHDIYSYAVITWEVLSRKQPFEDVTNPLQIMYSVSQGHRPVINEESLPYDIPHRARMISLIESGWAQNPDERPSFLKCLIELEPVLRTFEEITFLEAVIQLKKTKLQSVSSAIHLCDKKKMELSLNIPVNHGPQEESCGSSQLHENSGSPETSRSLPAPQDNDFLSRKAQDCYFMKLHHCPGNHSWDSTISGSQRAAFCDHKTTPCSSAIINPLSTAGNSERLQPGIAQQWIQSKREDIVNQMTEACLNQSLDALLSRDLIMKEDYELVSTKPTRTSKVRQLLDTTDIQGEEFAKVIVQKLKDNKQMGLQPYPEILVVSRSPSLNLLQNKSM
T23 sequence (P29597 888-1187 limits assumed): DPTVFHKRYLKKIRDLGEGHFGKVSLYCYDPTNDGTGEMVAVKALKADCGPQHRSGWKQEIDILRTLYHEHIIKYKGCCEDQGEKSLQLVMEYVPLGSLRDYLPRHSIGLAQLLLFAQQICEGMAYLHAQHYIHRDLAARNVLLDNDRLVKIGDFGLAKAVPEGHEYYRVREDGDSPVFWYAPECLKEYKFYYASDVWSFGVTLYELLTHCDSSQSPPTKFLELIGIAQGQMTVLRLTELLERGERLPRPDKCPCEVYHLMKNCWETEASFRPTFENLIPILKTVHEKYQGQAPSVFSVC
T21 sequence (P49137 whole entry, the tested form may be a part): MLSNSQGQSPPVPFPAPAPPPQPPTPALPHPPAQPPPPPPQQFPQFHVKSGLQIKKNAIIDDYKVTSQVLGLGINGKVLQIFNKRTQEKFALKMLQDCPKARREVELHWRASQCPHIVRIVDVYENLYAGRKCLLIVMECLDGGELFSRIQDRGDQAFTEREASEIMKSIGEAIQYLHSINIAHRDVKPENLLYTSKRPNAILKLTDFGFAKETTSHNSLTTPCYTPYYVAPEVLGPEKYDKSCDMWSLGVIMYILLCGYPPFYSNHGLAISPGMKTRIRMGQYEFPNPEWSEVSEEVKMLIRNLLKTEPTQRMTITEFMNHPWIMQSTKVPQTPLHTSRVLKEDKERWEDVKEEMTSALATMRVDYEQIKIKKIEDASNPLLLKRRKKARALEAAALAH
T27 sequence (Q00526 whole entry, the tested form may be a part): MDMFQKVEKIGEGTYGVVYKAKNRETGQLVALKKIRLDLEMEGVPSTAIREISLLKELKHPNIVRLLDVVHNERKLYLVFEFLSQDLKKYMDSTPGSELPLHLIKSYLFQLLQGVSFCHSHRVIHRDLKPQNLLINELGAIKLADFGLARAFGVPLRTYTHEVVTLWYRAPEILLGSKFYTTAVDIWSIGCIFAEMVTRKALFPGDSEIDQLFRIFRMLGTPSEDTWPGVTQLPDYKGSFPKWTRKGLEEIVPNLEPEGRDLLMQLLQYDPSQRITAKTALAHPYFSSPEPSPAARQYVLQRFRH
T7 sequence (P50750 whole entry, the tested form may be a part): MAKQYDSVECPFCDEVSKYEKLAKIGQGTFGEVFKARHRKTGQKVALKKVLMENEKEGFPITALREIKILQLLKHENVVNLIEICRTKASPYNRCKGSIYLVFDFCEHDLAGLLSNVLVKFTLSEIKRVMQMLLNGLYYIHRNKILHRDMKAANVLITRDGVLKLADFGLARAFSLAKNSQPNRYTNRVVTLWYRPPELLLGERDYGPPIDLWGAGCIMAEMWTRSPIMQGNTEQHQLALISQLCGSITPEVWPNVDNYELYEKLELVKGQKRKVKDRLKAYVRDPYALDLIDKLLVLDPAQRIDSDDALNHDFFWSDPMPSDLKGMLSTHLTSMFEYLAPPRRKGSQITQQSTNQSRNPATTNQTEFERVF
T15 sequence (P16234 24-1089): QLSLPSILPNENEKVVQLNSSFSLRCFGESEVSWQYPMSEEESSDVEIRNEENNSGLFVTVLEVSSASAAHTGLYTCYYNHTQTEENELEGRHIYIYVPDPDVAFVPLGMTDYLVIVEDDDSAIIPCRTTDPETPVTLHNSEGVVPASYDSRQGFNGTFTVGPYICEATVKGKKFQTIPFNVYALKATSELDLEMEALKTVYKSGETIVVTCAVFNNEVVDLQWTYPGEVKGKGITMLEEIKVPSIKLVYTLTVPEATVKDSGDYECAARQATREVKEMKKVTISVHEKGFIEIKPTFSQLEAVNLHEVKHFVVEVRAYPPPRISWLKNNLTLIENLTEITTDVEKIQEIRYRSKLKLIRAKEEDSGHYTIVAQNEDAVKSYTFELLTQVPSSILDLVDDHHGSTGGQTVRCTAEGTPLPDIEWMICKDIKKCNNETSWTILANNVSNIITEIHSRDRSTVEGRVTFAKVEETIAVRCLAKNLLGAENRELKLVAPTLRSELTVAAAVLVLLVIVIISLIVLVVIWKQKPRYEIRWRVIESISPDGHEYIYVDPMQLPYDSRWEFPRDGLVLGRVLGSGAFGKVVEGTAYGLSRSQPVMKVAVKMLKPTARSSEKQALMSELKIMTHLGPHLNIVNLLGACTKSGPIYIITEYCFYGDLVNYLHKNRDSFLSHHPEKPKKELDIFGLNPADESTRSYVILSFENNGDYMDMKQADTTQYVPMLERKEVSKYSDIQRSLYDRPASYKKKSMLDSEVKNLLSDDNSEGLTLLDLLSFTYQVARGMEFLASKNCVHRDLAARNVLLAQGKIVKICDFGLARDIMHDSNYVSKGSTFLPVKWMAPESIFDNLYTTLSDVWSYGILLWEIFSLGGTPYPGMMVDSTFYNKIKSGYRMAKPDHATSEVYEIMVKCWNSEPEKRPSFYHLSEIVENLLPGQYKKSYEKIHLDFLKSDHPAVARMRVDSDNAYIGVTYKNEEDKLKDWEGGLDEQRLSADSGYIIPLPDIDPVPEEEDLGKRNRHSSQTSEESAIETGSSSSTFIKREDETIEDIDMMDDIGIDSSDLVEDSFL
T31 sequence (O00750 whole entry, the tested form may be a part): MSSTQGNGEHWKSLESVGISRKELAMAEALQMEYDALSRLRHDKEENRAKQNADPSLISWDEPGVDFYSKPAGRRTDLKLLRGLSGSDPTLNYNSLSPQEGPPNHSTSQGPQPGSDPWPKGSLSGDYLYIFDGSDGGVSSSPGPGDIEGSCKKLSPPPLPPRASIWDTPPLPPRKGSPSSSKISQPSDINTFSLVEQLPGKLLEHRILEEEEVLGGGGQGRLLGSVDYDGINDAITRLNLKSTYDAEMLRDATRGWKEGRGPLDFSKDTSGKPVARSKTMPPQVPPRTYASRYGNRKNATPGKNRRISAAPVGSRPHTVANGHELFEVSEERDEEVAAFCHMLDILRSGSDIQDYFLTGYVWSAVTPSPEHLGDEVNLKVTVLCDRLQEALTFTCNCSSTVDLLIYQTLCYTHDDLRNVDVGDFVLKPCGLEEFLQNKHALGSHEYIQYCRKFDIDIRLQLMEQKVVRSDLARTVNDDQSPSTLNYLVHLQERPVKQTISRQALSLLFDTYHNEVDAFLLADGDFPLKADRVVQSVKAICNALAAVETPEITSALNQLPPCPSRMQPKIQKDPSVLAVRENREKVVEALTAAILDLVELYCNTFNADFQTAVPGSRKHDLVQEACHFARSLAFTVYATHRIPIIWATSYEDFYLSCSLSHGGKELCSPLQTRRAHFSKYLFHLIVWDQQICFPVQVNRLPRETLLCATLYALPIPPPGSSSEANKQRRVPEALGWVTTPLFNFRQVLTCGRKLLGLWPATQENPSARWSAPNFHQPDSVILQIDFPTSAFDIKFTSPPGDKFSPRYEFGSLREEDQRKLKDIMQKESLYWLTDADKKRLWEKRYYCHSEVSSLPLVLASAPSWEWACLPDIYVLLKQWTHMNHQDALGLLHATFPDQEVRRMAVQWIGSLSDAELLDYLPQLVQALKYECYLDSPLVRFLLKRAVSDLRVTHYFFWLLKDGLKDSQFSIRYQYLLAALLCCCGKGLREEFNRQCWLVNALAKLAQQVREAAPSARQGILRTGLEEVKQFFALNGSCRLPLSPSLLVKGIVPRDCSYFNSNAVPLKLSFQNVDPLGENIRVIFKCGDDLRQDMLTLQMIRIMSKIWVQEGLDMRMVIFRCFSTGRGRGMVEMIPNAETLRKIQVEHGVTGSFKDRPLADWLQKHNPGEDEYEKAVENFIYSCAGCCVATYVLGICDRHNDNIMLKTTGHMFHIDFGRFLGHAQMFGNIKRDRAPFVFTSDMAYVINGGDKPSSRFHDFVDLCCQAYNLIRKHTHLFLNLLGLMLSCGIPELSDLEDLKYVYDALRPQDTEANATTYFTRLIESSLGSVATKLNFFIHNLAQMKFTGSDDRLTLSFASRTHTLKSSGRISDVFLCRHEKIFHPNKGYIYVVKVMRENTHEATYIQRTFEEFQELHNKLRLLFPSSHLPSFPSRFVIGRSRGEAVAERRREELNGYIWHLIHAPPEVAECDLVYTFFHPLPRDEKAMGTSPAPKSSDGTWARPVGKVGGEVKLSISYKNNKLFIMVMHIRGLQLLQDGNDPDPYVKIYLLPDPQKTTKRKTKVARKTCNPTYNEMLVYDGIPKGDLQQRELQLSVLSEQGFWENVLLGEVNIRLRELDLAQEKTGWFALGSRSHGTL
T9 sequence (P27361 whole entry, the tested form may be a part): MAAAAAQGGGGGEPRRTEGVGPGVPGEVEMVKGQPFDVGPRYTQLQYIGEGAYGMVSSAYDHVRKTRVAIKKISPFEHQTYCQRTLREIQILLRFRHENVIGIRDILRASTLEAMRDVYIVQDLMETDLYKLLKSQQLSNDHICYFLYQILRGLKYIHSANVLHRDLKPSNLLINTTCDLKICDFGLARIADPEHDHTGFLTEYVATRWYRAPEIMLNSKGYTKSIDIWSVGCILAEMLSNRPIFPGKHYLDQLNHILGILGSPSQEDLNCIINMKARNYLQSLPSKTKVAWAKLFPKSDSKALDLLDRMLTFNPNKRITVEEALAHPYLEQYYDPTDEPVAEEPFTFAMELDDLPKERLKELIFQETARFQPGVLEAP

Work on `COc1ccc(N2C(=O)N(c3c(C)cccc3C)Cc3cnc(Nc4ccc(C5CCN(C)CC5)c(OC)c4)nc32)c(OC)c1` [YKL-05-093] yielded a remaining binding at 0.071 µM (p38-alpha) of 0.95%, a remaining binding at 0.071 µM (TIE2) of 32% and a remaining binding at 0.071 µM (SRPK3) of 88%. For the same molecule, the remaining binding at 0.071 µM (MARK3) was 40%, the remaining binding at 0.071 µM (CSNK1G2) was 100% and the remaining binding at 0.071 µM (ADCK3) was 93%. For the same molecule, the remaining binding at 0.071 µM (CDK9) was 88%, the remaining binding at 0.071 µM (DYRK1B) was 93% and the remaining binding at 0.071 µM (ERK1) was 100%. For the same molecule, the remaining binding at 0.071 µM (CDK2) was 99%, the remaining binding at 0.071 µM (CSNK1D) was 98% and the remaining binding at 0.071 µM (IGF1R) was 100%. The remaining binding at 0.071 µM (IKK-alpha) was 93%, the remaining binding at 0.071 µM (KIT) was 1.8% and the remaining binding at 0.071 µM (PDGFRA) was 11%. It also gave a remaining binding at 0.071 µM (SNARK) of 6%, a remaining binding at 0.071 µM (MLK1) of 12% and a remaining binding at 0.071 µM (CDK11) of 88%. The remaining binding at 0.071 µM (SIK2) was 10%, the remaining binding at 0.071 µM (HIPK2) was 100% and the remaining binding at 0.071 µM (MAPKAPK2) was 85%. It also gave a remaining binding at 0.071 µM (EPHA2) of 7.1%, a remaining binding at 0.071 µM (TYK2) of 49% and a remaining binding at 0.071 µM (CHEK1) of 42%. For the same molecule, the remaining binding at 0.071 µM (RIPK2) was 16%, the remaining binding at 0.071 µM (RAF1) was 100% and the remaining binding at 0.071 µM (CDK3) was 80%. The remaining binding at 0.071 µM (BTK) was 0.45%, the remaining binding at 0.071 µM (PIK3CA) was 84% and the remaining binding at 0.071 µM (ERBB4) was 6.1%. It also gave a remaining binding at 0.071 µM (PIK3C2B) of 100%, a remaining binding at 0.071 µM (ZAP70) of 52% and a remaining binding at 0.071 µM (PIK3CG) of 80%.
